18 compounds from patent US6391595B1, “Transferase and amylase, process for producing the enzymes, use thereof, and gene coding for the same” (Kirin Beer Kabushiki Kaisha, priority 1994, dated 2002) can be followed below.

Assay [1] deals with transferase derived from the Sulfolobus solfataricus strain KM1. Put plainly: Influence of activators and inhibitors on glucosyltrehalose-producing activity. Type of assay: biochemical. Conditions: for Activating or inhibitory effect: added with the substrate.
In assay [2] the target is T1, amylase derived from the Sulfolobus solfataricus strain KM1 (Saccharolobus solfataricus, UniProt Q55088).
T1 construct: endogenous in cells; host or cells: Sulfolobus solfataricus strain KM1 cells
T1 sequence (Q55088 1-559): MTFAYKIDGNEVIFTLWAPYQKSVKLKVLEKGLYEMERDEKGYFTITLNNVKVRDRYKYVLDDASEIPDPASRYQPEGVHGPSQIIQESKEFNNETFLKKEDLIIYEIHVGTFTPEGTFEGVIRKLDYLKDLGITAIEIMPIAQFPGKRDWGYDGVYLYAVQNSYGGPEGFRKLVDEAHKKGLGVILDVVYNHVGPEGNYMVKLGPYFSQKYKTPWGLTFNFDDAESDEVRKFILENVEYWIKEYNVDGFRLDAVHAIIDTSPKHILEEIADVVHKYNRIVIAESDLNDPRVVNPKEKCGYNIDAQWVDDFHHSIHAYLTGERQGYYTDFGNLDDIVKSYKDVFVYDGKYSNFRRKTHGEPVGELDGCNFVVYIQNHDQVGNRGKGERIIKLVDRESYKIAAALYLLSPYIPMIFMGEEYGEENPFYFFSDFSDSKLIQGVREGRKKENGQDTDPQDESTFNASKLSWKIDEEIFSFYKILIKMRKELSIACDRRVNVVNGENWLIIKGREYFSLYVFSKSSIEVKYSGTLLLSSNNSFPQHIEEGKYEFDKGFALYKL
Put plainly: biochemical. Conditions: for Activating or inhibitory effect: added with the substrate. Type of assay: biochemical.

Assay [3] deals with debranching enzyme derived from the Sulfolobus solfataricus strain KM1. The experiment in a line: Influence of activators and inhibitors on debranching enzyme activity. The assay is classed as biochemical. As to conditions: for Residual activity: Concentration 5 mM.
The target in assay [4] is T1, amylase derived from the Sulfolobus solfataricus strain KM1. Put plainly: Substrate specificity of the purified amylase (hydrolyzing properties, TSK-gel Amide-80 HPLC). Conditions: for Liberated oligosaccharide / Production rate of mono- and disaccharides: 25.0 Units/ml enzyme, 10 mM substrate (amylopectin and soluble starch 2.8%); for Production rate of mono- and disaccharides: 1 Unit = 1 μmol per hour. Type of assay: biochemical. As for the experimental part: The hydrolyzing properties were analyzed by allowing 25.0 Units/ml (in terms of the enzymatic activity when maltotriosyltrehalose is used as the substrate) of the present purified enzyme to act on the various 10 mM substrates (except amylopectin and soluble starch were used as 2.8% solutions) listed in Table 16 below, and the hydrolyzed products were also analyzed.
Incidentally, each enzymatic activity in Table 16 is expressed with such a unit as 1 Unit equals the activity of liberating 1 μmol of each of the monosaccharide and disaccharide per hour.

Assay [5] concerns the target T2, swine pancreatic α-amylase (Sus scrofa, UniProt P00690).
T2 construct: purchased Sigma Co. A-6255
T2 sequence (P00690 16-511): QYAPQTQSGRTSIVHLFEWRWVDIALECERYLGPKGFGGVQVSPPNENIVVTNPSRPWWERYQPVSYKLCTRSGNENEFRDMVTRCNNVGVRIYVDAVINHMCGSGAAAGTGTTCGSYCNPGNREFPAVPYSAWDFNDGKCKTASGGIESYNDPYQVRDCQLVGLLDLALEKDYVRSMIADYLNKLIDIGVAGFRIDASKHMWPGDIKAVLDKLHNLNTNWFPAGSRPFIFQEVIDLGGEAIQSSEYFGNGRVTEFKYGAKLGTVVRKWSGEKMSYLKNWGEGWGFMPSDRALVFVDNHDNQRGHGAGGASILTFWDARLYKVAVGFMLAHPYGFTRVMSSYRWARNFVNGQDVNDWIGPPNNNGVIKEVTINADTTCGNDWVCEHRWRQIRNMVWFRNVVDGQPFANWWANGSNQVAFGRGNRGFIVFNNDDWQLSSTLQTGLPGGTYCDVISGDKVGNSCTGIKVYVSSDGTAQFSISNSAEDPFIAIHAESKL
Put plainly: Hydrolysis of oligosaccharides by pancreatic α-amylase (comparative). The assay is classed as biochemical. Conditions: 1 Unit/ml α-amylase, 10 mM substrate, pH 6.9, 20° C.; for Production rate of di- and trisaccharides: 1 Unit = 1 umol per hour. How it is done: Swine pancreatic α-amylase is known to hydrolyze maltooligosaccharide from the reducing end by two or three sugar units [“Denpun.Kanren Toushitsu Kouso Jikken-hou” (“Experimental methods in enzymes for starch and relating saccharides”), p 135, written by Michinori Nakamura and Keiji Kainuma, published by Gakkai-Shuppan-Sentah]. Upon this, a swine pancreatic α-amylase (manufactured by Sigma Co., A-6255) was analyzed the hydrolyzing properties and the hydrolysates as a comparative example for the novel amylase of the present invention. […] The activity of producing disaccharide and trisaccharide was employed as the index of the enzymatic activity, and the analysis was performed by the TSK-gel Amide-80 HPLC analyzing method described in Example II-1.
Incidentally, the enzymatic activity values in Table 17 were expressed with such a unit as 1 Unit equals the activity of liberating 1 umol of each oligosaccharide per hour.

Assay [6] has as its target T3, recombinant novel amylase (Saccharolobus solfataricus, UniProt Q55088).
T3 sequence (Q55088 1-559): T1 sequence (Q55088 1-559)
The experiment in a line: Substrate specificity of the recombinant novel amylase (crude enzyme solution). Conditions: for Liberated oligosaccharide / Production rate of mono- and disaccharides: 35.2 Units/ml crude enzyme solution, 10 mM substrate (amylopectin and soluble starch 3.0%); for Production rate of mono- and disaccharides: 1 Unit = 1 μmol per hour.

Setting [7] is: Concentration 5 mM, read-out: Residual activity.

The structures appear in SMILES notation. Read-outs that look alike come from different tables or passages of the source.

`O[C@H](CS)[C@H](O)CS` (racemic) [Dithiothreitol]: the Residual activity in assay [1] (Concentration 5 mM) is listed as 84.5%; in assay [3] it was 106.0%. Moreover, the remaining activity at 5000 µM in assay [2] (setting [7]) amounted to 116%.

Turning to `OCCS` [2-Mercaptoethanol], the Residual activity in assay [1] (Concentration 5 mM) was 100.3%; in assay [2] (Concentration 5 mM), 141.7%; in assay [3], 104.1%.

For the compound `O=[N+]([O-])[O-].[Ag+]` [AgNO3], the Residual activity in assay [1] (Concentration 5 mM) is recorded as 121.0%; in assay [2] (Concentration 5 mM), 105.7%.

`[Ca+2].[Cl-].[Cl-]` [CaCl2]: the values for the Residual activity in assay [1] (Concentration 5 mM), in assay [2] (Concentration 5 mM) and in assay [3] were 93.6%, 97.1% and 105.7%, respectively. The “Activating or inhibitory effect” value in assay [1], in assay [2] and in assay [3] (added with the substrate) was “would not be activated” each time.

For the compound `[Cl-].[Cl-].[Co+2]` [CoCl2], the values for the Residual activity in assay [1] (Concentration 5 mM), in assay [2] (Concentration 5 mM) and in assay [3] were 88.5%, 97.1% and 87.2%, respectively.

On to `O=C(O)CN(CCN(CC(=O)O)CC(=O)O)CC(=O)O` [EDTA], for which the results for the Residual activity in assay [1] and in assay [2] were 96.8% and 106.3%, respectively.

For the compound `[Cl][Fe]([Cl])[Cl]` [FeCl3], the Residual activity came out at 90.0% in assay [1] (Concentration 5 mM), 38.0% in assay [2] (Concentration 5 mM) and 39.0% in assay [3].

In the case of `O=S(=O)([O-])[O-].[Fe+2]` [FeSO4], the Residual activity in assay [1] (Concentration 5 mM) came out at 108.3%; in assay [2] (Concentration 5 mM), 73.5%; in assay [3] it was 74.1%.

For the compound `OCC1OC(OC2OC(CO)C(OC3OC(CO)C(O)C(O)C3O)C(O)C2O)C(O)C(O)C1O` [Glucosyltrehalose, α-D-maltosyl α-D-glucopyranoside], the Liberated oligosaccharide result in assay [4] is “Glucose + Trehalose”; in assay [5] it was “not decomposed”; in assay [6], “Glucose + Trehalose”. Further, the “Production rate of mono- and disaccharides” value in assay [4] is listed as 0.04 units/ml; in assay [6] it was 0.01 units/ml. In addition, in assay [5], the “Production rate of di- and trisaccharides” value amounted to 0 units/ml.

Consider `OC[C@H]1O[C@H](OC[C@H]2OC(O)[C@H](O)[C@@H](O)[C@@H]2O)[C@H](O)[C@@H](O)[C@@H]1O` (stereo partly drawn) [Isomaltose], for which, in assay [4], the “Action of the enzyme on the substrate” value was “did not act”; the Liberated oligosaccharide result is reported as “not decomposed”; the “Production rate of mono- and disaccharides” value is listed as 0 units/ml. In assay [6], the “Action of the enzyme on the substrate” value is “did not act”; the Liberated oligosaccharide entry is “not decomposed”; the “Production rate of mono- and disaccharides” value is reported as 0 units/ml.

Regarding `OC[C@H]1O[C@H](O[C@H]2O[C@H](CO)[C@@H](O[C@H]3O[C@H](CO)[C@@H](O[C@H]4O[C@H](CO)[C@@H](O[C@H]5O[C@H](CO)[C@@H](O[C@H]6O[C@H](CO)[C@@H](O[C@H]7O[C@H](CO)[C@@H](O)[C@H](O)[C@H]7O)[C@H](O)[C@H]6O)[C@H](O)[C@H]5O)[C@H](O)[C@H]4O)[C@H](O)[C@H]3O)[C@H](O)[C@H]2O)[C@H](O)[C@@H](O)[C@@H]1O` [Maltopentaosyltrehalose], in assay [4], the Liberated oligosaccharide entry was “G5 + Trehalose”; the “Production rate of mono- and disaccharides” value is listed as 25.5 units/ml. Moreover, in assay [5], the Liberated oligosaccharide entry was “G3 + Maltosyltrehalose”; the “Production rate of di- and trisaccharides” value was found to be 4.36 units/ml.

Turning to `OCC1OC(OC2OC(CO)C(OC3OC(CO)C(OC4OC(CO)C(O)C(O)C4O)C(O)C3O)C(O)C2O)C(O)C(O)C1O` [Maltosyltrehalose, α-D-maltotriosyl α-D-glucopyranoside], the Liberated oligosaccharide entry was “G2 + Trehalose” in assay [4], “not decomposed” in assay [5] and “G2 + Trehalose” in assay [6]. Also, the “Production rate of mono- and disaccharides” value in assay [4] is 3.93 units/ml; in assay [6] it was 4.52 units/ml. In assay [5], the “Production rate of di- and trisaccharides” value was 0 units/ml.

With `OC[C@H]1O[C@H](O[C@H]2O[C@H](CO)[C@@H](O[C@H]3O[C@H](CO)[C@@H](O[C@H]4O[C@H](CO)[C@@H](O[C@H]5O[C@H](CO)[C@@H](O[C@H]6O[C@H](CO)[C@@H](O)[C@H](O)[C@H]6O)[C@H](O)[C@H]5O)[C@H](O)[C@H]4O)[C@H](O)[C@H]3O)[C@H](O)[C@H]2O)[C@H](O)[C@@H](O)[C@@H]1O` [Maltotetraosyltrehalose], in assay [4], the Liberated oligosaccharide entry is reported as “G4 + Trehalose”; the “Production rate of mono- and disaccharides” value is reported as 27.3 units/ml. In assay [5], the Liberated oligosaccharide entry is “G3 + Glucosyltrehalose”; the “Production rate of di- and trisaccharides” value was 2.57 units/ml.

On to `OCC1OC(OC2OC(CO)C(OC3OC(CO)C(OC4OC(CO)C(OC5OC(CO)C(O)C(O)C5O)C(O)C4O)C(O)C3O)C(O)C2O)C(O)C(O)C1O` [Maltotriosyltrehalose, α-D-maltotetraosyl α-D-glucopyranoside], for which, in assay [4], the Liberated oligosaccharide entry was “G3 + Trehalose”; the “Production rate of mono- and disaccharides” value was 25.0 units/ml. Moreover, in assay [5], the Liberated oligosaccharide entry is recorded as “G2 + Glucosyltrehalose”; the “Production rate of di- and trisaccharides” value worked out at 0.03 units/ml. For the same compound, in assay [6], the Liberated oligosaccharide result is listed as “G3 + Trehalose”; the “Production rate of mono- and disaccharides” value is listed as 35.21 units/ml.

On to `[Cl-].[Cl-].[Mg+2]` [MgCl2], for which the Residual activity in assay [1] (Concentration 5 mM) was 111.3%; in assay [2] (Concentration 5 mM), 93.5%; in assay [3], 82.9%.

Consider `[Cl][Mn][Cl]` [MnCl2], for which the values for the Residual activity in assay [1] (Concentration 5 mM), in assay [2] (Concentration 5 mM) and in assay [3] were 74.2%, 101.8% and 91.2%, respectively.

Take `CCCCCCCCCCCCOS(=O)(=O)[O-].[Na+]` [SDS, sodium dodecyl sulfate]: the Residual activity in assay [1] (Concentration 5 mM) came to 0.0%. Also, the “Activating or inhibitory effect” value in assay [1] and in assay [2] was “inhibitory effects” throughout. Besides, in assay [2] (setting [7]), the remaining activity at 5000 µM came to 0%.

Consider `OC[C@H]1O[C@H](O[C@H]2O[C@H](CO)[C@@H](O)[C@H](O)[C@H]2O)[C@H](O)[C@@H](O)[C@@H]1O` [α,α-Trehalose, α,α-trehalose], for which the Residual activity in assay [1] (Concentration 0.5 mM) was found to be 107.8%. Further, the remaining activity at 500 µM in assay [2] (Concentration 0.5 mM, read-out: Residual activity) amounted to 98.2%. In addition, in assay [4], the “Action of the enzyme on the substrate” value is “did not act”; the Liberated oligosaccharide entry was “not decomposed”; the “Production rate of mono- and disaccharides” value was 0 units/ml. Moreover, in assay [6], the “Action of the enzyme on the substrate” value was “did not act”; the Liberated oligosaccharide entry is given as “not decomposed”; the “Production rate of mono- and disaccharides” value stood at 0 units/ml.
